Laboratory results as given in ChEMBL document CHEMBL4739709, “Novel cyclin-dependent kinase 8 and/or 19 inhibitor” (2020).
Each block holds one molecule with its values, some of them ahead of it. Active and inactive are the calls of the source. The calls are words filed in the database; no cut-off is given here.

Tests used:
[1] = molecular target: CDK8/Cyclin C (Homo sapiens) (UniProt P49336+P24863); assay: Inhibition of human CDK8/cyclin C at 1 uM incubated for 30 mins by ELISA; type: protein-complex assay
[2] = molecular target: RAC-alpha serine/threonine-protein kinase (Homo sapiens) (UniProt P31749); assay: Inhibition of human AKT1 at 1 uM using substrate peptide by off-chip mobility shift assay
[3] = molecular target: Mitogen-activated protein kinase 1 (Homo sapiens) (UniProt P28482); assay: Inhibition of human ERK2 at 1 uM using substrate peptide by off-chip mobility shift assay
Mitogen-activated protein kinase 1 (Homo sapiens), sequence (P28482 whole entry): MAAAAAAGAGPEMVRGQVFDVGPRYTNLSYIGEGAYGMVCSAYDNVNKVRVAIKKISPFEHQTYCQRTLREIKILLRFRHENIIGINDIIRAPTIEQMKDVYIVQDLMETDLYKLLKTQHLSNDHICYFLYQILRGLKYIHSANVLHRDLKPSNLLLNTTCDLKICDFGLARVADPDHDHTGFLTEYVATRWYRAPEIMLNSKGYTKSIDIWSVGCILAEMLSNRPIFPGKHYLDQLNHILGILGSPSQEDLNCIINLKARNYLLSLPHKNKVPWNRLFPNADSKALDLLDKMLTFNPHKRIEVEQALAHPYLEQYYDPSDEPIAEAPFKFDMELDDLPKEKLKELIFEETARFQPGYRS

[4] = molecular target: AMP-activated protein kinase (AMPK) alpha-1/beta-1/gamma-1 (Homo sapiens) (UniProt P54619+Q9Y478+Q13131); assay: Inhibition of human AMPKalpha1/beta1/gamma1 at 1 uM using substrate peptide by off-chip mobility shift assay
[5] = molecular target: Serine/threonine-protein kinase Chk1 (Homo sapiens) (UniProt O14757); assay: Inhibition of human CHK1 at 1 uM using substrate peptide by off-chip mobility shift assay
[6] = molecular target: Mitogen-activated protein kinase kinase kinase kinase 4 (Homo sapiens) (UniProt O95819); assay: Inhibition of human HGK at 1 uM using substrate peptide by off-chip mobility shift assay
Mitogen-activated protein kinase kinase kinase kinase 4 (Homo sapiens), sequence (O95819 2-1239 limits assumed): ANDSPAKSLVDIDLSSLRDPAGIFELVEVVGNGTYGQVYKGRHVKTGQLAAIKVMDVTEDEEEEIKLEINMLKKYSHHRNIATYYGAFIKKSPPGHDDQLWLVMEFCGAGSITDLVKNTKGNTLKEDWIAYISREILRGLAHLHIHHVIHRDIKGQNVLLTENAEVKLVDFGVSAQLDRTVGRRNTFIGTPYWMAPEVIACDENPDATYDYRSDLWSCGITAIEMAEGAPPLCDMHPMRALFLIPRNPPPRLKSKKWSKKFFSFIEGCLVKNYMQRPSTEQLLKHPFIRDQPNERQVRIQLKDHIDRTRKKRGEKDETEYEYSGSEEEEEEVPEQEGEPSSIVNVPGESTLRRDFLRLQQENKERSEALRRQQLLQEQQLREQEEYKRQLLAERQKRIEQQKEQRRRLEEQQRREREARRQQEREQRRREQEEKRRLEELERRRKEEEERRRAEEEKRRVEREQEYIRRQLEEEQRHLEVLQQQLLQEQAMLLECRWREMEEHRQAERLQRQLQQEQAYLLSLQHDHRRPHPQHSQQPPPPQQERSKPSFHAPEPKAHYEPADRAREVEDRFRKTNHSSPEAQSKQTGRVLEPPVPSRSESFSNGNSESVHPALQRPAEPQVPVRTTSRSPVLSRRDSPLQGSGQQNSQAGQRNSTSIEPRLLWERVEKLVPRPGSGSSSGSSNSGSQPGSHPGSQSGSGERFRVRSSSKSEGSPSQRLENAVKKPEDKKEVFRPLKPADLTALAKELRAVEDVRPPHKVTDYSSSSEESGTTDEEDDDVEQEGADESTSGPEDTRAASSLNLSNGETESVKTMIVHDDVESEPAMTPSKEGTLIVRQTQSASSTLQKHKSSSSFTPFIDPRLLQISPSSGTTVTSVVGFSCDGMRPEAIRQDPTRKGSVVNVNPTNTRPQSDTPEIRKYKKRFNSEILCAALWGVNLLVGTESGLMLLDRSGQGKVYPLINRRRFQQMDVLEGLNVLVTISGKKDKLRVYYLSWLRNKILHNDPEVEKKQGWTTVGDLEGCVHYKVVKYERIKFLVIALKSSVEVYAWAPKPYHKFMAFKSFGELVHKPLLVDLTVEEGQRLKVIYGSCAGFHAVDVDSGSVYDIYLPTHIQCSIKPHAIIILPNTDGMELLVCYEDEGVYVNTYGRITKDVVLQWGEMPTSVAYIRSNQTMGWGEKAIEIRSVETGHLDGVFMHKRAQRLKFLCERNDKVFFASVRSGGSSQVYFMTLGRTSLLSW

[7] = molecular target: Aurora kinase A (Homo sapiens) (UniProt O14965); assay: Inhibition of human Aurora A at 1 uM using substrate peptide by off-chip mobility shift assay
[8] = molecular target: Serine/threonine-protein kinase PAK 2 (Homo sapiens) (UniProt Q13177); assay: Inhibition of human PAK2 at 1 uM using substrate peptide by off-chip mobility shift assay
Serine/threonine-protein kinase PAK 2 (Homo sapiens), sequence (Q13177 whole entry): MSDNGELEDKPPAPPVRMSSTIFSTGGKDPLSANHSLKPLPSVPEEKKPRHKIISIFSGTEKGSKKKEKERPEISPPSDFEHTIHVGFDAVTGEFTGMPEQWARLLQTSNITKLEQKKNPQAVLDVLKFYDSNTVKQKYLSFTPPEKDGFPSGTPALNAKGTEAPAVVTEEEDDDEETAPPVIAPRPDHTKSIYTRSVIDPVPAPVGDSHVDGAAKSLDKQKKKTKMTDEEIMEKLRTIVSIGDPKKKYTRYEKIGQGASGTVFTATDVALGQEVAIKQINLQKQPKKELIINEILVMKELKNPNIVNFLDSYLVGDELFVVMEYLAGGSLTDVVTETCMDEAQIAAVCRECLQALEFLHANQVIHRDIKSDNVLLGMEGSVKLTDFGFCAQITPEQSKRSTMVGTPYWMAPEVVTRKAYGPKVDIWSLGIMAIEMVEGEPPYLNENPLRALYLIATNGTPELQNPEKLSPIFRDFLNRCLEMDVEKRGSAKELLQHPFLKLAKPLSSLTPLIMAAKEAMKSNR

[9] = molecular target: Mitogen-activated protein kinase kinase kinase kinase 2 (Homo sapiens) (UniProt Q12851); assay: Inhibition of human MAP4K2 at 1 uM using substrate peptide by off-chip mobility shift assay
[10] = molecular target: CDK9/cyclin T1 (Homo sapiens) (UniProt O60563+P50750); assay: Inhibition of human CDK9/CycT1 at 1 uM using substrate peptide by off-chip mobility shift assay; type: protein-complex assay
[11] = molecular target: Testis-specific serine/threonine-protein kinase 1 (Homo sapiens) (UniProt Q9BXA7); assay: Inhibition of human TSSK1 at 1 uM using substrate peptide by off-chip mobility shift assay
[12] = molecular target: CDK2/Cyclin C (Homo sapiens) (UniProt P24941+P24863); assay: Inhibition of human CDK2/CycC2 at 1 uM using substrate peptide by off-chip mobility shift assay
[13] = molecular target: CDK6/cyclin D3 (Homo sapiens) (UniProt P30281+Q00534); assay: Inhibition of human CDK6/cyclinD3 at 1 uM using substrate peptide by off-chip mobility shift assay; type: protein-complex assay
[14] = molecular target: Serine/threonine-protein kinase pim-1 (Homo sapiens) (UniProt P11309); assay: Inhibition of human PIM1 at 1 uM using substrate peptide by off-chip mobility shift assay
[15] = molecular target: Calcium/calmodulin-dependent protein kinase type IV (Homo sapiens) (UniProt Q16566); assay: Inhibition of human CaMK4 at 1 uM using substrate peptide by off-chip mobility shift assay
[16] = molecular target: Cyclin-dependent kinase 5/CDK5 activator 1 (Homo sapiens) (UniProt Q00535+Q15078); assay: Inhibition of human CDK5/p25 at 1 uM using substrate peptide by off-chip mobility shift assay; type: protein-complex assay
[17] = molecular target: Dual specificity tyrosine-phosphorylation-regulated kinase 1B (Homo sapiens) (UniProt Q9Y463); assay: Inhibition of human DYRK1B at 1 uM using substrate peptide by off-chip mobility shift assay
Dual specificity tyrosine-phosphorylation-regulated kinase 1B (Homo sapiens), sequence (Q9Y463 whole entry, looked up): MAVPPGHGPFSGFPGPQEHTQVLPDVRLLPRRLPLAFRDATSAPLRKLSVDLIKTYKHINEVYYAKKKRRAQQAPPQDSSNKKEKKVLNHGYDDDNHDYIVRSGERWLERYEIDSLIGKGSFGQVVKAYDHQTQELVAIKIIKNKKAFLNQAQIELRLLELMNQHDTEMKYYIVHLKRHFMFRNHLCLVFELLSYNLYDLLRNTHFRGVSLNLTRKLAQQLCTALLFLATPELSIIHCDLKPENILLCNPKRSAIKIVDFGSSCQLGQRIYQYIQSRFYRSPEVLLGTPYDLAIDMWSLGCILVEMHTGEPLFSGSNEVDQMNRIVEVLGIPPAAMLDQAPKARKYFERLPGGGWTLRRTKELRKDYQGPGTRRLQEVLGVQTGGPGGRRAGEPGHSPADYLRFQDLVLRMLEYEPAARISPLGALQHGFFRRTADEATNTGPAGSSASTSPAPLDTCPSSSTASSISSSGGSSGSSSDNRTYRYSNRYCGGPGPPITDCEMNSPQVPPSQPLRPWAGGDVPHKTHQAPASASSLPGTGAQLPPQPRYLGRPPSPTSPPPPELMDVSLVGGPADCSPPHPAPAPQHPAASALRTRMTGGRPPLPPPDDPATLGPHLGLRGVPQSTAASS

[18] = molecular target: cAMP-dependent protein kinase catalytic subunit alpha (Homo sapiens) (UniProt P17612); assay: Inhibition of human PKACalpha at 1 uM using substrate peptide by off-chip mobility shift assay
[19] = molecular target: Serine/threonine-protein kinase 4 (Homo sapiens) (UniProt Q13043); assay: Inhibition of human MST1 at 1 uM using substrate peptide by off-chip mobility shift assay
MV4-11 = assay: Inhibition of cell proliferation of human MV4-11 cells at 1 uM incubated for 3 days by CellTiter 96 aqueous one solution cell proliferation assay; type: functional; settings: MV4-11, 72 h, time 3 day
[20] = molecular target: Serine/threonine-protein kinase Sgk1 (Homo sapiens) (UniProt O00141); assay: Inhibition of human SGK at 1 uM using substrate peptide by off-chip mobility shift assay
Serine/threonine-protein kinase Sgk1 (Homo sapiens), sequence (O00141 whole entry): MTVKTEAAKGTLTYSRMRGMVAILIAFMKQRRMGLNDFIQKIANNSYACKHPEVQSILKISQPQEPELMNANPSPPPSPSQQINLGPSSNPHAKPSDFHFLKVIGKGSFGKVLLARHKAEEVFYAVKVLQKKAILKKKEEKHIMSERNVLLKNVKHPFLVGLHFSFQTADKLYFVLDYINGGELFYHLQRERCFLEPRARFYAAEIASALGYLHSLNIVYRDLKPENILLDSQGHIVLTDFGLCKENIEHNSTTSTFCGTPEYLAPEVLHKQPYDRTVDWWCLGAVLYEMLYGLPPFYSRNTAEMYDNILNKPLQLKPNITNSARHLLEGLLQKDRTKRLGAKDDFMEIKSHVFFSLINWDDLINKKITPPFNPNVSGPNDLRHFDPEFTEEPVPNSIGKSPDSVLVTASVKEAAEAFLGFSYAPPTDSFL

[21] = molecular target: Lymphokine-activated killer T-cell-originated protein kinase (Homo sapiens) (UniProt Q96KB5); assay: Inhibition of human PBK at 1 uM using substrate peptide by off-chip mobility shift assay
[22] = molecular target: Cyclin-dependent kinase 2/cyclin E1 (Homo sapiens) (UniProt P24864+P24941); assay: Inhibition of human CDK2/CycE1 at 1 uM using substrate peptide by off-chip mobility shift assay; type: protein-complex assay
[23] = molecular target: Death-associated protein kinase 1 (Homo sapiens) (UniProt P53355); assay: Inhibition of human DAPK1 at 1 uM using substrate peptide by off-chip mobility shift assay
[24] = molecular target: CDK7/Cyclin H/MNAT1 (Homo sapiens) (UniProt P51946+P50613+P51948); assay: Inhibition of human CDK7/CycH/MAT1 at 1 uM using substrate peptide by off-chip mobility shift assay; type: protein-complex assay
[25] = molecular target: CDK3/Cyclin E (Homo sapiens) (UniProt P24864+Q00526); assay: Inhibition of human CDK3/CycE1 at 1 uM using substrate peptide by off-chip mobility shift assay; type: protein-complex assay
[26] = molecular target: Inhibitor of nuclear factor kappa-B kinase subunit beta (Homo sapiens) (UniProt O14920); assay: Inhibition of human IKKbeta at 1 uM using substrate peptide by off-chip mobility shift assay
[27] = molecular target: Interleukin-1 receptor-associated kinase 4 (Homo sapiens) (UniProt Q9NWZ3); assay: Inhibition of human JNK2 at 1 uM using substrate peptide by off-chip mobility shift assay
Interleukin-1 receptor-associated kinase 4 (Homo sapiens), sequence (Q9NWZ3 whole entry): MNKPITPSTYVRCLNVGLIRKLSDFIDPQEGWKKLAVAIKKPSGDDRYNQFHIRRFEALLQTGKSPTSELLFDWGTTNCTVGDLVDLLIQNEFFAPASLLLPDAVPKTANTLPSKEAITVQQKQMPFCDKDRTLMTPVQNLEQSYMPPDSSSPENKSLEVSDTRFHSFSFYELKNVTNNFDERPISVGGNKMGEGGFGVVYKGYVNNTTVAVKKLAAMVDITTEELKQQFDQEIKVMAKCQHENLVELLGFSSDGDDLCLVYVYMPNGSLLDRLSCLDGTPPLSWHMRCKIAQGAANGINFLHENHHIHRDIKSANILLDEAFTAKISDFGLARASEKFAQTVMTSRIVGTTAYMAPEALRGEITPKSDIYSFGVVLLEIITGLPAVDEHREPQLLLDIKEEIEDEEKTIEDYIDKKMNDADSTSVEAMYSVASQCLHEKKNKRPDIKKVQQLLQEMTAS

[28] = molecular target: Interleukin-1 receptor-associated kinase 4 (Homo sapiens) (UniProt Q9NWZ3); assay: Inhibition of human IRAK4 at 1 uM using substrate peptide by off-chip mobility shift assay
[29] = molecular target: Cyclin-dependent kinase 19 (Homo sapiens) (UniProt Q9BWU1); assay: Inhibition of CDK19 (unknown origin) at 1 uM incubated for 30 mins by ELISA
Cyclin-dependent kinase 19 (Homo sapiens), sequence (Q9BWU1 whole entry): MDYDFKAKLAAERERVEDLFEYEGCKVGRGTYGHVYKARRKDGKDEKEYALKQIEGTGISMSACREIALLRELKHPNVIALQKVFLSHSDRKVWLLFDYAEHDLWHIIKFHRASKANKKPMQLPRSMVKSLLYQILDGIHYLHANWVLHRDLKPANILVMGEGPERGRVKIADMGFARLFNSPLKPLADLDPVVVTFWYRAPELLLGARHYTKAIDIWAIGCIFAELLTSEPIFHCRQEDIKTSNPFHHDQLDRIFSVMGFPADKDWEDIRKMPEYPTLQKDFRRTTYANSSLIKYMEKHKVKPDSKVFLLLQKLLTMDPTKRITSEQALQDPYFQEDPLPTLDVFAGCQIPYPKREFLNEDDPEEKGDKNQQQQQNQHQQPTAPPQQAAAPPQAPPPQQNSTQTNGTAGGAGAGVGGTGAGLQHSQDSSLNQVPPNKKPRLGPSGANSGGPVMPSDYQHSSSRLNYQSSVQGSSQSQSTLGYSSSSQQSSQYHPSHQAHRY

[30] = molecular target: Serine/threonine-protein kinase Nek2 (Homo sapiens) (UniProt P51955); assay: Inhibition of human NEK2 at 1 uM using substrate peptide by off-chip mobility shift assay
[31] = molecular target: Glycogen synthase kinase-3 beta (Homo sapiens) (UniProt P49841); assay: Inhibition of human GSK3beta at 1 uM using substrate peptide by off-chip mobility shift assay
[32] = molecular target: Serine/threonine-protein kinase D2 (Homo sapiens) (UniProt Q9BZL6); assay: Inhibition of human PKD2 at 1 uM using substrate peptide by off-chip mobility shift assay
Serine/threonine-protein kinase D2 (Homo sapiens), sequence (Q9BZL6 whole entry): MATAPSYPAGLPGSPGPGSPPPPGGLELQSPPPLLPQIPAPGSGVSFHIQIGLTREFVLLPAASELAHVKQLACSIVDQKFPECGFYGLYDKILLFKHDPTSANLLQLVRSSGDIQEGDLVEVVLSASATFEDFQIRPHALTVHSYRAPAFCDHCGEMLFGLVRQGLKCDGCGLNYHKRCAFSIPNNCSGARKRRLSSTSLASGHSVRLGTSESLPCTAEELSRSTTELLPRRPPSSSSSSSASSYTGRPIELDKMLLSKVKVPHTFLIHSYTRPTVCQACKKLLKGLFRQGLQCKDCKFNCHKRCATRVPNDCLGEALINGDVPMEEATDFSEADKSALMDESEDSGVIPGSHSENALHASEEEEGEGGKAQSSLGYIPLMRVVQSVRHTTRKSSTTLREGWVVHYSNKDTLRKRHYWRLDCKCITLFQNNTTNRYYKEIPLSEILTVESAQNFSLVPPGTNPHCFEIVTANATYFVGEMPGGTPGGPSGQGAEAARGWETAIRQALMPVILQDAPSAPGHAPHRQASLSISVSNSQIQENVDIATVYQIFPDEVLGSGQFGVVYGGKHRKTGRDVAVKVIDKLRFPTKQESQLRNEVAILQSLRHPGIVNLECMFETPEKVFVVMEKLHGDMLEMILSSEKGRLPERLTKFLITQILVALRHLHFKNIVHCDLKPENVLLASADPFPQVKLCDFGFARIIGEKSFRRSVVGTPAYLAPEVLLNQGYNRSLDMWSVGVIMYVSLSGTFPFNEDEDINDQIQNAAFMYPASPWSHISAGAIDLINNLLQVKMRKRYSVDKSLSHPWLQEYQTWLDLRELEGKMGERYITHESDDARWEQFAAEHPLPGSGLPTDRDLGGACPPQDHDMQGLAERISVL

Homo sapiens [33] = species on record: Homo sapiens; assay: Inhibition of human p70S6K at 1 uM using substrate peptide by off-chip mobility shift assay
[34] = molecular target: Mitogen-activated protein kinase 14 (Homo sapiens) (UniProt Q16539); assay: Inhibition of human p38alpha at 1 uM using substrate peptide by off-chip mobility shift assay
[35] = molecular target: CDK4/Cyclin D3 (Homo sapiens) (UniProt P11802+P30281); assay: Inhibition of human CDK4/CycD3 at 1 uM using substrate peptide by off-chip mobility shift assay; type: protein-complex assay
[36] = molecular target: Cyclin-dependent kinase 1/cyclin B1 (Homo sapiens) (UniProt P06493+P14635); assay: Inhibition of human CDC2/CycB1 at 1 uM using substrate peptide by off-chip mobility shift assay; type: protein-complex assay
[37] = molecular target: 3-phosphoinositide-dependent protein kinase 1 (Homo sapiens) (UniProt O15530); assay: Inhibition of human PDK1 at 1 uM using substrate peptide by off-chip mobility shift assay
[38] = molecular target: Rho-associated protein kinase 1 (Homo sapiens) (UniProt Q13464); assay: Inhibition of human ROCK1 at 1 uM using substrate peptide by off-chip mobility shift assay
Homo sapiens [39] = species on record: Homo sapiens; assay: Inhibition of human CK1delta at 1 uM using substrate peptide by off-chip mobility shift assay

Compound: CC(=O)c1ccc(C(N)=O)cc1Nc1ccc(OCCOCCCC(=O)O)cc1
inhibition [1]: > 90%

Compound: CC(=O)c1ccc(C(N)=O)cc1Oc1ccc(OCCOC2CCOCC2)cc1
inhibition [2]: inactive
inhibition [3]: inactive
inhibition [4]: inactive
inhibition [5]: inactive
inhibition [6]: inactive
inhibition [7]: inactive
inhibition [8]: inactive
inhibition [9]: inactive
inhibition [10]: inactive
inhibition [11]: inactive
inhibition [12]: inactive
inhibition [13]: inactive
inhibition [14]: inactive
inhibition [15]: inactive
inhibition [16]: inactive
inhibition [17]: inactive
inhibition [18]: inactive
inhibition [19]: inactive
inhibition at 1 µM (MV4-11): ≥ 50%
inhibition [20]: inactive
inhibition [21]: inactive
inhibition [22]: inactive
inhibition [23]: inactive
inhibition [24]: inactive
inhibition [25]: inactive
inhibition [26]: inactive
inhibition [27]: inactive
inhibition [28]: inactive
inhibition [29]: > 90%
inhibition [30]: inactive
inhibition [31]: inactive
inhibition [32]: inactive
inhibition (Homo sapiens [33]): inactive
inhibition [34]: inactive
inhibition [35]: inactive
inhibition [36]: inactive
inhibition [37]: inactive
inhibition [38]: inactive
inhibition (Homo sapiens [39]): inactive
inhibition [1]: > 90%

Compound: C=C(F)c1ccc(C(N)=O)cc1Oc1ccc(OCCOC2CCOCC2)cc1
inhibition at 1 µM (MV4-11): ≥ 50%
inhibition [1]: > 90%

Compound: CC(=O)c1ccc(C(N)=O)cc1Oc1ccc(OCCOCCOC(C)C)cc1
inhibition at 1 µM (MV4-11): ≥ 50%
inhibition [1]: > 90%

Compound: C[C@@H](O)c1ccc(C(N)=O)cc1Oc1ccc(OCCOC2CCOCC2)cc1
inhibition [29]: > 90%
inhibition [1]: > 90%

Compound: CC(=O)c1ccc(C(N)=O)cc1Oc1ccc(OCCOC2CCOC2)cc1 (configuration not stated)
inhibition at 1 µM (MV4-11): ≥ 50%
inhibition [1]: > 90%

Compound: CC(C)OCCOCCOc1ccc(Oc2cc(C(N)=O)ccc2C(F)(F)F)cc1
inhibition [1]: > 90%

Compound: NC(=O)c1ccc(C(F)(F)F)c(Oc2ccc(OCCOC3CCOCC3)cc2)c1
inhibition at 1 µM (MV4-11): ≥ 50%
inhibition [1]: > 90%

Continued, in another order:

inhibition [1]: > 90%
Compound: CNC(=O)c1ccc([N+](=O)[O-])c(Nc2ccc(N3CC(OCCO)C3)cc2)c1
inhibition at 1 µM (MV4-11): ≥ 50%

inhibition [1]: > 90%
Compound: CC(=O)c1ccc(C(N)=O)c(Oc2ccc(N3CC(OCCO)C3)cc2)c1

inhibition [1]: > 90%
Compound: NC(=O)c1ccc([N+](=O)[O-])c(Nc2ccc(OCCOC3CCOCC3)cc2)c1
inhibition at 1 µM (MV4-11): ≥ 50%

inhibition [1]: > 90%
Compound: CC(=O)c1ccc(C(N)=O)cc1Oc1ccc(N2CC(OCCO)C2)cc1
inhibition at 1 µM (MV4-11): ≥ 50%

inhibition [1]: > 90%
Compound: NC(=O)c1ccc([N+](=O)[O-])c(Nc2ccc(N3CC(OCCO)C3)cc2)c1
inhibition at 1 µM (MV4-11): ≥ 50%

inhibition [1]: > 90%
Compound: COc1cc(Nc2ccc(N3CCN(CC(C)(C)C(=O)O)CC3)cc2)c([N+](=O)[O-])cc1F
